Reference: patent US20130287763A1, “COMBINATION THERAPY FOR TREATING CANCER COMPRISING AN IGF-1R INHIBITOR AND AN AKT INHIBITOR” (MERCK SHARP & DOHME CORP., priority 2010, published 2013)
“Also recorded” adds a separate entry of the source.

Key:
[1] = tested on: SW837 (KRASG12C) xenograft tumors; experiment: SW837 xenograft growth assessment; assay type: in vivo, mice; settings: compared to the vehicle treated group (FIG. 5)
Protocol: (§1) A suspension of human SKCO1 and SW837 cells (5×10^6) and HT29 (3×10^6) in Matrigel (Cat. #356231, BD Biosciences; 1:1 v/v) were injected subcutaneously into the right flank of 4-6 week old SCID Hairless Outbred (SHO), NOD SCID, or CD-1 nu/nu (Jackson Laboratories) mice, respectively. When tumors reached a size of ˜300 mm3 (Length*Width*Width*0.5), mice were randomized into treatment groups. […] Animals were weighed and tumor volumes were determined by calipering 2 times per week during the study and at termination. Tumor weight was measured and recorded at termination. On day 28 animals were sacrificed by CO2 asphyxiation. […] At time of sacrifice tumors pieces were collected for western blot analysis (snap frozen in liquid nitrogen) and for immunohistochemistry (10% neutral buffered formalin).

HT-29 cells [2] = experiment: Phospho-RTK arrays, HT-29 cells; assay type: cell-based, human
Protocol: (§2) All CRC and NSCLC cell lines were obtained from ATCC and maintained in 10% fetal bovine serum, FBS (Hyclone) containing media (DMEM or RPMI; Invitrogen Inc) supplemented with pen-strep (Invitrogen) at 37° C. according to the instructions from ATCC.
(§3) About 2 million cells were cultured in 10 cm plates and protein lysates were prepared from a sub-confluent culture. 500 ug of protein lysate were incubated with RTK Arrays (R&D bioscience; cat# ARY001) and developed as detailed in the manual. The arrays were probed with HRP-conjugated P-Tyr antibody and then incubated with Super-Signal chemiluminescence substrate (Pierce) and blots were then exposed to a Kodak Biomax Light Film.

IGF-1R signaling pathway = experiment: Western blot analysis of IGF-1R/PI3K pathway activity in xenograft tumor samples; assay type: in vivo, mice; settings: 24 hrs after MK-0646 or 6 hrs after MK-2206 (FIG. 6)
Protocol: Total protein lysates from cells (˜0.3 million) cultured in 6 well plates were generated by removing the media, rinsing once with PBS and lysing in NP-40 buffer (1% NP-40, 20 MM Tris-HCL (pH8.0), 137 mM NaCl, 10% glycerol, 2 mM EDTA, Mini Complete protease inhibitor, HALT phosphatase Inhibitor cocktail). Samples were western blotted with indicated total or phosphor-specific antibodies followed by a secondary antibody (Cell Signaling Technology, CST) and then incubated with SuperSignal chemiluminescence substrate (Pierce). The blots were then exposed to a Kodak Biomax Light Film. The antibodies against ERK, p-ERK (Thr202/Tyr204), AKT and p-AKT (Ser473), IGF1R13, S6K & P-S6K (T389), IRS1 & P-IRS1 (S302) and actin were obtained from CST. Total IGF1R antibody was obtained from Santa Cruz and GAPDH was obtained from Chemicon. A suspension of human SKCO1 and SW837 cells (5×10^6) and HT29 (3×10^6) in Matrigel (Cat. #356231, BD Biosciences; 1:1 v/v) were injected subcutaneously into the right flank of 4-6 week old SCID Hairless Outbred (SHO), NOD SCID, or CD-1 nu/nu (Jackson Laboratories) mice, respectively. When tumors reached a size of ˜300 mm3 (Length*Width*Width*0.5), mice were randomized into treatment groups. […] Animals were weighed and tumor volumes were determined by calipering 2 times per week during the study and at termination. Tumor weight was measured and recorded at termination. […]

[3] = tested on: SKCO1 (KRASmut) xenograft tumors; experiment: SKCO1 xenograft growth assessment; assay type: in vivo, mice; settings: MK-0646 20 mg/kg i.p. once a week, MK-2206 140 mg/kg p.o. 3-times a week (FIG. 4)
Protocol: as §1

[4] = tested on: SKCO1 (CRC), HCC70 (breast cancer), H1793 (NSCLC) cells; experiment: Phospho-RTK arrays, cell lines from different cancer types; assay type: cell-based, human; settings: cell type-dependent
Protocol: as §3, with “All CRC and NSCLC cell lines were obtained from ATCC and maintained in 10% fetal bovine serum, FBS (Hyclone) containing media (DMEM or RPMI; Invitrogen Inc) supplemented with pen-strep (Invitrogen) at 37° C. according to the instructions from ATCC. About” for “About”

HT-29 cells [5] = experiment: Western blot of HT-29 cells treated with increasing doses of MK-2206; assay type: cell-based, human; settings: MK-2206 0.041-1.11 um, western blot (FIG. 1A)
Protocol: All CRC and NSCLC cell lines were obtained from ATCC and maintained in 10% fetal bovine serum, FBS (Hyclone) containing media (DMEM or RPMI; Invitrogen Inc) supplemented with pen-strep (Invitrogen) at 37° C. according to the instructions from ATCC. Total protein lysates from cells (˜0.3 million) cultured in 6 well plates were generated by removing the media, rinsing once with PBS and lysing in NP-40 buffer (1% NP-40, 20 MM Tris-HCL (pH8.0), 137 mM NaCl, 10% glycerol, 2 mM EDTA, Mini Complete protease inhibitor, HALT phosphatase Inhibitor cocktail). Samples were western blotted with indicated total or phosphor-specific antibodies followed by a secondary antibody (Cell Signaling Technology, CST) and then incubated with SuperSignal chemiluminescence substrate (Pierce). The blots were then exposed to a Kodak Biomax Light Film. The antibodies against ERK, p-ERK (Thr202/Tyr204), AKT and p-AKT (Ser473), IGF1R13, S6K & P-S6K (T389), IRS1 & P-IRS1 (S302) and actin were obtained from CST. Total IGF1R antibody was obtained from Santa Cruz and GAPDH was obtained from Chemicon.

SW-837 cells = experiment: Phospho-RTK arrays, SW-837 cells; assay type: cell-based, human; settings: SW-837, 20.95 ug/ml MK-0646, 18 hrs (FIG. 3C)
Protocol: as §2, §3

[6] = HT-29 cells, 1 uM MK-2206, 18 hrs, RTK arrays (FIG. 1B)

Molecule | tumor growth inhibition [1] [%] | phosphorylation of IGF-1R (HT-29 cells [2]; [6]) | phosphorylation of IR and cMET (HT-29 cells [2]; [6]) | IGF-1R signaling as measured by phosphorylation of IGF-1R (IGF-1R signaling pathway) | tumor growth inhibition compared to vehicle treated control group [3] | RTK activity (Her2) ([4]; MK-2206, 18 hrs, RTK arrays (FIG. 2)) | phosphorylation of RTKs (IGF-1R, IR, cMET, Her2, Her3, EphA2) ([4]; SKCO1 370 nM, HCC70 370 nM, H1793 1 uM MK-2206, 18 hrs (FIG. 2)) | phosphorylation of AKT (HT-29 cells [5]) | total IGF-1R levels (HT-29 cells [5]) | amount of active cMET and insulin receptor (HT-29 cells [2]; HT-29, 20.95 ug/ml MK-0646, 18 hrs (FIG. 3A)) | amount of active cMET and insulin receptor (SW-837 cells)
NC1(c2ccc(-c3nc4ccn5c(=O)[nH]nc5c4cc3-c3ccccc3)cc2)CCC1 [MK-2206, 8-[4-(1-Aminocyclobutyl)phenyl]-9-phenyl[1,2,4]triazolo[3,4-f]-1,6-naphthyridin-3(2H)-one] | ~30 | increase | observed | feedback activation of IGF-1R signaling | significant growth inhibition; also recorded: significantly inhibited tumor growth | can decrease | increasing the phosphorylation of multiple RTKs | diminished in a dose dependent manner | increase in a dose dependent manner |  | 
MK-0646: humanized antibody characterized as binding IGF-1R as well as the IR/IGF-1 hybrid receptor | ~10 |  |  |  | significant growth inhibition; also recorded: significantly inhibited tumor growth |  |  |  |  | reduced | reduced
